Assay results taken from patent USRE32098E (Research and Education Institute, Inc., priority 1978, dated 1986).
Structures can show the parent of a compound that is named as a salt. Where two headings read alike, the source gives them in different places.

Tests used:
[1] = molecular target: T1, TBG (thyroxine-binding globulin) (Homo sapiens, UniProt P05543); experiment: Displacement of radioactive T4 from TBG in a CPBA system; set-up: AMOUNT T4 DISPLACED FROM TBG: unit not given here
T1 construct: from tissue; host or cells: human serum, diluted 1/32
T1 sequence (P05543 21-415): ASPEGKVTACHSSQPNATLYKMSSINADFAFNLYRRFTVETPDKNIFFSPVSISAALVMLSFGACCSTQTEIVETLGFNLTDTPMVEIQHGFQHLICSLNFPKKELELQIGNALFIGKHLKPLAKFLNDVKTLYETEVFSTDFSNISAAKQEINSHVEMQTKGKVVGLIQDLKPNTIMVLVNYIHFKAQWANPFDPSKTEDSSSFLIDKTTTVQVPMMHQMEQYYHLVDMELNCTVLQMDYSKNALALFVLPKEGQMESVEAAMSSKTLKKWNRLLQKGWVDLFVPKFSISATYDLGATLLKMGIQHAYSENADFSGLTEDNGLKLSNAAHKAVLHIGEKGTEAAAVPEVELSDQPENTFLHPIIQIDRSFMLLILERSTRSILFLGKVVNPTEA

TBG [2] = molecular target: T2, TBG (Homo sapiens, UniProt P05543); experiment: Displacement of radioactive T3 from TBG; format: binding
T2 construct: from tissue; host or cells: serum
T2 sequence (P05543 21-415): T1 sequence (P05543 21-415)

sheep serum TBG = experiment: Adequacy of the amount of ANS in T3 RIA: T3-125I bound to T3-binding antibody in presence of sheep serum and ANS versus plain buffer; details: 200 ug ANS
TBG [3] = experiment: T4 RIA standard curves in barbital buffer and in presence of T4-free serum (FIG. 2); format: binding; details: 25 ul T4-free serum
[4] = tested on: thyroxine binding prealbumin (TBPA); experiment: T4 binding by prealbumin
[5] = tested on: T3-binding sites on the rabbit antiserum; experiment: Affinity for T3-binding sites on the rabbit antiserum
Solubility at pH of RIA = format: physicochemical
[6] = tested on: proteins such as thyroxine-binding globulin (TBG), prealbumin (TBPA) and albumin; details: normal human serum; cited from earlier work
TBG [7] = molecular target: T2, TBG; experiment: Maximal T4-binding capacity of TBG in serum (method of Inada and Sterling); details: 7 euthyroid subjects with high serum TBG

With `O=C1NC(=S)NC1(c1ccccc1)c1ccccc1` [5,5 diphenyl-2 thiohydantoin] the “AMOUNT T4 DISPLACED FROM TBG” value ([1]; 100 ug blocking agent) was 6.1 and the “AMOUNT T3 DISPLACED FROM TBG” value (TBG [2]; 10 ug blocking agent) was 7.6 ng.

With `O=S(=O)(O)c1ccc2cc(N=Nc3ccc(Nc4ccccc4)c4ccccc34)c(S(=O)(=O)O)cc2c1` [ANNDS, 3-(4-anilino-1-napthylazo) 2,7-napthalene disulfonic acid] the “AMOUNT T4 DISPLACED FROM TBG” value ([1]; 50 ug blocking agent) was > 20 and the “AMOUNT T3 DISPLACED FROM TBG” value (TBG [2]; 10 ug blocking agent) was 10.4 ng.

In the case of `O=S(=O)(O)c1cccc2cccc(Nc3ccccc3)c12` [ANS, 8-anilino-1-napthalene-sulfonic acid], the “AMOUNT T4 DISPLACED FROM TBG” value [1] is reported as 18, the “T4 displaced from TBG” value [1] is reported as 18 nanograms (ng) and the “concentration of T4 in serum up to which all T4 is displaced” value [1] is reported as ≤ 72 ug per 100 ml. The “AMOUNT T3 DISPLACED FROM TBG” value (TBG [2]) was 11.2 ng, the “T3 displaced from TBG” value (TBG [2]) was 11.2 nanograms (ng) and the “concentration of T3 in serum up to which all T3 may be displaced” value (TBG [2]) was ≤ 88 ug T3 per 100 ml. For the same molecule, the “displacement of T3 bound to TBG” value (TBG [2]) was “displaces nearly all T3 bound to TBG”, the “prevention of binding of radioactive T3 to TBG” value (TBG [2]) was “prevents completely the binding of radioactive T3 to TBG” and the “neutralization of the inhibiting effect of sheep serum TBG” value (sheep serum TBG) was “almost complete neutralization”. For the same molecule, the “radioactivity bound to antibody relative to that in plain buffer” value (sheep serum TBG; with sheep serum, no stable T3) was 95-98%, the “blocking of TBG in serum” value (TBG [3]) was “TBG in the serum was adequately blocked” and the “effect on T4 binding by prealbumin” value [4] was “affected”. The “affinity for T3-binding sites on the rabbit antiserum” value [5] was “negligible affinity” and the “solubility compared with Dilantin and tetrachlorthyronine” value (Solubility at pH of RIA) was “better solubility at pH of RIA”.

For `CN(C)CCCN1c2ccccc2Sc2ccc(Cl)cc21` [Chlorpromazine HCl], the “AMOUNT T4 DISPLACED FROM TBG” value [1] was 5.6 and the “AMOUNT T3 DISPLACED FROM TBG” value (TBG [2]) was 6.6 ng.

In the case of `CN1C(=O)CN=C(c2ccccc2)c2cc(Cl)ccc21` [Diazepam], the “AMOUNT T4 DISPLACED FROM TBG” value [1] is reported as 6.3 and the “AMOUNT T3 DISPLACED FROM TBG” value (TBG [2]) is reported as 7.0 ng.

In the case of `O=C1NC(=O)C(c2ccccc2)(c2ccccc2)N1` [Dilantin], the “AMOUNT T4 DISPLACED FROM TBG” value ([1]; 100 ug blocking agent) is reported as 5.7.

For `CN(C)CCC=C1c2ccccc2COc2ccccc21` [Doxepin HCl], the “AMOUNT T4 DISPLACED FROM TBG” value [1] was 8.2 and the “AMOUNT T3 DISPLACED FROM TBG” value (TBG [2]) was 10.8 ng.

With `CC(=O)NCCOC(=O)C(Oc1cccc(C(F)(F)F)c1)c1ccc(Cl)cc1` (centres unmarked) [Halofenate] the “AMOUNT T4 DISPLACED FROM TBG” value ([1]; 100 ug blocking agent) was 8.4 and the “AMOUNT T3 DISPLACED FROM TBG” value (TBG [2]; 10 ug blocking agent) was 5.2 ng.

With `CN1CCN(CCCN2c3ccccc3Sc3ccc(Cl)cc32)CC1` [Prochlorperazine] the “AMOUNT T4 DISPLACED FROM TBG” value [1] was 7.2 and the “AMOUNT T3 DISPLACED FROM TBG” value (TBG [2]) was 7.0 ng.

In the case of `O=C([O-])c1ccccc1O.[Na+]` [Sodium Salicylate], the “AMOUNT T4 DISPLACED FROM TBG” value [1] is reported as 6.1, the “AMOUNT T3 DISPLACED FROM TBG” value (TBG [2]) is reported as 11.0 ng and the “effect on T4 binding by prealbumin” value [4] is reported as “affected”.

For `N[C@@H](Cc1cc(I)c(Oc2ccc(O)c(I)c2)c(I)c1)C(=O)O` [T3, triiodothyronine], the “present as unbound (dialyzable or free) hormone” value [6] is given as 0.3%.

With `C[CH2][Hg][S]c1ccccc1C(=O)[O-].[Na+]` [Thimerosal] the “AMOUNT T4 DISPLACED FROM TBG” value [1] was 8.4 and the “AMOUNT T3 DISPLACED FROM TBG” value (TBG [2]) was 8.0 ng.

In the case of `O=S(=O)(O)c1cccc2ccccc12` [αNapthalene Sulfonic Acid], the “AMOUNT T4 DISPLACED FROM TBG” value ([1]; 100 ug blocking agent) is reported as 3.0 and the “AMOUNT T3 DISPLACED FROM TBG” value (TBG [2]; 100 ug blocking agent) is reported as 7.0 ng.

B1: TBG: thyroxine-binding globulin, serum protein binding thyroid hormones (protein, UniProt P05543 21-415, looked up)
Thyroxine-binding globulin: T1 sequence (P05543 21-415)
For B1, the “maximal T4-binding capacity of TBG (mean)” value (TBG [7]) was 46.9 ug per 100 ml.
